Literature values in patent EP2698169A1, “A contrast agent-binding polypeptide and use thereof” (Universität Duisburg-Essen, priority 2012, dated 2014).

Details: literature [26]; conventional small molecular contrast agents

Relaxivities	Compound
below 10 s^-1mM^-1	O=C([O-])CN1CCN(CC(=O)[O-])CCN(CC(=O)O)CCN(CC(=O)[O-])CC1.[Gd+3] [DOTA-Gd^3+]
below 10 s^-1mM^-1	CNC[C@H](O)[C@@H](O)[C@H](O)[C@H](O)CO.CNC[C@H](O)[C@@H](O)[C@H](O)[C@H](O)CO.O=C([O-])CN(CCN(CC(=O)[O-])CC(=O)O)CCN(CC(=O)[O-])CC(=O)O.[Gd+3] [DTPA-Gd^3+, gadopentetic acid]
